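Values below derive from 48-hour exposures of cells grown in 96-well plates, with endpoints linearly interpolated between the two concentrations bracketing the appropriate inhibition level. Abbreviation: GI50, concentration required for 50% inhibition of growth. TGI marks complete inhibition of growth.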
Assays:
Test in all cases: growth of human tumour cells (NCI), 48 h
HCT-116 colon = tested on: HCT-116 colon
MOLT-4 leukemia = tested on: MOLT-4 leukemia
M14 melanoma = tested on: M14 melanoma
CAKI-1 renal = tested on: CAKI-1 renal
SF-268 CNS = tested on: SF-268 CNS
BT-549 breast = tested on: BT-549 breast
LOX IMVI melanoma = tested on: LOX IMVI melanoma
K-562 leukemia = tested on: K-562 leukemia
U251 CNS = tested on: U251 CNS
SNB-75 CNS = tested on: SNB-75 CNS
SK-MEL-28 melanoma = tested on: SK-MEL-28 melanoma
SF-539 CNS = tested on: SF-539 CNS
NCI-H23 lung = tested on: NCI-H23 lung
MDA-MB-231 breast = tested on: MDA-MB-231 breast
OVCAR-8 ovarian = tested on: OVCAR-8 ovarian
PC-3 prostate = tested on: PC-3 prostate
DU-145 prostate = tested on: DU-145 prostate
MCF7 breast = tested on: MCF7 breast
SK-OV-3 ovarian = tested on: SK-OV-3 ovarian
HS 578T breast = tested on: HS 578T breast
SW-620 colon = tested on: SW-620 colon
OVCAR-3 ovarian = tested on: OVCAR-3 ovarian
COLO 205 colon = tested on: COLO 205 colon
SN12C renal = tested on: SN12C renal
HCT-15 colon = tested on: HCT-15 colon
IGROV1 ovarian = tested on: IGROV1 ovarian

CC[C@@]1(O)C(=O)OCc2c1cc1n(c2=O)Cc2c-1nc1cc(F)c(C)c3c1c2[C@@H](N)CC3
GI50 (HCT-116 colon): < 10 nM
TGI (HCT-116 colon): 11500 nM
GI50 (MOLT-4 leukemia): < 10 nM
GI50 (M14 melanoma): < 10 nM
TGI (M14 melanoma): 27.9 nM
GI50 (CAKI-1 renal): < 10 nM
TGI (CAKI-1 renal): 74.1 nM
GI50 (SF-268 CNS): < 10 nM
TGI (SF-268 CNS): > 100000 nM
GI50 (BT-549 breast): < 10 nM
TGI (BT-549 breast): 111 nM
GI50 (LOX IMVI melanoma): < 10 nM
TGI (LOX IMVI melanoma): 10.1 nM
GI50 (K-562 leukemia): < 10 nM
TGI (K-562 leukemia): > 100000 nM
GI50 (U251 CNS): < 10 nM
TGI (U251 CNS): 102 nM
GI50 (SNB-75 CNS): < 10 nM
TGI (SNB-75 CNS): 175 nM
GI50 (SK-MEL-28 melanoma): 111 nM
TGI (SK-MEL-28 melanoma): > 100000 nM
GI50 (SF-539 CNS): < 10 nM
TGI (SF-539 CNS): < 10 nM
GI50 (NCI-H23 lung): < 10 nM
TGI (NCI-H23 lung): < 10 nM
GI50 (MDA-MB-231 breast): 28.5 nM
TGI (MDA-MB-231 breast): 2220 nM
GI50 (OVCAR-8 ovarian): < 10 nM
TGI (OVCAR-8 ovarian): 116 nM
GI50 (PC-3 prostate): 20.6 nM
TGI (PC-3 prostate): > 100000 nM
GI50 (DU-145 prostate): < 10 nM
TGI (DU-145 prostate): > 100000 nM
GI50 (MCF7 breast): < 10 nM
TGI (MCF7 breast): > 100000 nM
GI50 (SK-OV-3 ovarian): < 10 nM
TGI (SK-OV-3 ovarian): 135 nM
GI50 (HS 578T breast): 221 nM
TGI (HS 578T breast): > 100000 nM
GI50 (SW-620 colon): < 10 nM
TGI (SW-620 colon): 13100 nM
GI50 (OVCAR-3 ovarian): 36.8 nM
TGI (OVCAR-3 ovarian): 635 nM
GI50 (COLO 205 colon): 39.3 nM
TGI (COLO 205 colon): 298 nM
GI50 (SN12C renal): < 10 nM
TGI (SN12C renal): 145 nM
GI50 (HCT-15 colon): 14.6 nM
TGI (HCT-15 colon): 4890 nM
GI50 (IGROV1 ovarian): 26.1 nM
TGI (IGROV1 ovarian): 1150 nM
